For test [1], the target named is T1, human sodium channels Nav 1.8 (Homo sapiens, UniProt Q9Y5Y9).
T1 construct: expressed in transfected cells
Kind of test: Automated whole-cell voltage-clamp (ScreenPatch 384P) sodium current block, Nav 1.8. The following applies: CHO cells stably expressing human Nav 1.8; inactivation step -40 mV 8 s, test step 10 mV (TP1A); eight concentrations; exposure at least five minutes; room temperature; read-out: Nav1.8 IC50. Format: cell-based. An outline of the steps:
(§1)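 Stable CHO lines, whole-cell automated patch clamp at room temperature, ≥5 min exposure, eight concentrations. From -100 mV hold, 8 s at -40 mV, 20 ms at -100 mV, then test pulse to 10 mV (Nav 1.8) or 0 mV (Nav 1.7) at 0.05 Hz; peak-current % block fitted for IC50, averaged over repeats.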

For test [2], the target named is T2, human sodium channels Nav 1.7 (Homo sapiens, UniProt Q15858).
T2 construct: expressed in transfected cells
T2 sequence (Q15858 whole entry): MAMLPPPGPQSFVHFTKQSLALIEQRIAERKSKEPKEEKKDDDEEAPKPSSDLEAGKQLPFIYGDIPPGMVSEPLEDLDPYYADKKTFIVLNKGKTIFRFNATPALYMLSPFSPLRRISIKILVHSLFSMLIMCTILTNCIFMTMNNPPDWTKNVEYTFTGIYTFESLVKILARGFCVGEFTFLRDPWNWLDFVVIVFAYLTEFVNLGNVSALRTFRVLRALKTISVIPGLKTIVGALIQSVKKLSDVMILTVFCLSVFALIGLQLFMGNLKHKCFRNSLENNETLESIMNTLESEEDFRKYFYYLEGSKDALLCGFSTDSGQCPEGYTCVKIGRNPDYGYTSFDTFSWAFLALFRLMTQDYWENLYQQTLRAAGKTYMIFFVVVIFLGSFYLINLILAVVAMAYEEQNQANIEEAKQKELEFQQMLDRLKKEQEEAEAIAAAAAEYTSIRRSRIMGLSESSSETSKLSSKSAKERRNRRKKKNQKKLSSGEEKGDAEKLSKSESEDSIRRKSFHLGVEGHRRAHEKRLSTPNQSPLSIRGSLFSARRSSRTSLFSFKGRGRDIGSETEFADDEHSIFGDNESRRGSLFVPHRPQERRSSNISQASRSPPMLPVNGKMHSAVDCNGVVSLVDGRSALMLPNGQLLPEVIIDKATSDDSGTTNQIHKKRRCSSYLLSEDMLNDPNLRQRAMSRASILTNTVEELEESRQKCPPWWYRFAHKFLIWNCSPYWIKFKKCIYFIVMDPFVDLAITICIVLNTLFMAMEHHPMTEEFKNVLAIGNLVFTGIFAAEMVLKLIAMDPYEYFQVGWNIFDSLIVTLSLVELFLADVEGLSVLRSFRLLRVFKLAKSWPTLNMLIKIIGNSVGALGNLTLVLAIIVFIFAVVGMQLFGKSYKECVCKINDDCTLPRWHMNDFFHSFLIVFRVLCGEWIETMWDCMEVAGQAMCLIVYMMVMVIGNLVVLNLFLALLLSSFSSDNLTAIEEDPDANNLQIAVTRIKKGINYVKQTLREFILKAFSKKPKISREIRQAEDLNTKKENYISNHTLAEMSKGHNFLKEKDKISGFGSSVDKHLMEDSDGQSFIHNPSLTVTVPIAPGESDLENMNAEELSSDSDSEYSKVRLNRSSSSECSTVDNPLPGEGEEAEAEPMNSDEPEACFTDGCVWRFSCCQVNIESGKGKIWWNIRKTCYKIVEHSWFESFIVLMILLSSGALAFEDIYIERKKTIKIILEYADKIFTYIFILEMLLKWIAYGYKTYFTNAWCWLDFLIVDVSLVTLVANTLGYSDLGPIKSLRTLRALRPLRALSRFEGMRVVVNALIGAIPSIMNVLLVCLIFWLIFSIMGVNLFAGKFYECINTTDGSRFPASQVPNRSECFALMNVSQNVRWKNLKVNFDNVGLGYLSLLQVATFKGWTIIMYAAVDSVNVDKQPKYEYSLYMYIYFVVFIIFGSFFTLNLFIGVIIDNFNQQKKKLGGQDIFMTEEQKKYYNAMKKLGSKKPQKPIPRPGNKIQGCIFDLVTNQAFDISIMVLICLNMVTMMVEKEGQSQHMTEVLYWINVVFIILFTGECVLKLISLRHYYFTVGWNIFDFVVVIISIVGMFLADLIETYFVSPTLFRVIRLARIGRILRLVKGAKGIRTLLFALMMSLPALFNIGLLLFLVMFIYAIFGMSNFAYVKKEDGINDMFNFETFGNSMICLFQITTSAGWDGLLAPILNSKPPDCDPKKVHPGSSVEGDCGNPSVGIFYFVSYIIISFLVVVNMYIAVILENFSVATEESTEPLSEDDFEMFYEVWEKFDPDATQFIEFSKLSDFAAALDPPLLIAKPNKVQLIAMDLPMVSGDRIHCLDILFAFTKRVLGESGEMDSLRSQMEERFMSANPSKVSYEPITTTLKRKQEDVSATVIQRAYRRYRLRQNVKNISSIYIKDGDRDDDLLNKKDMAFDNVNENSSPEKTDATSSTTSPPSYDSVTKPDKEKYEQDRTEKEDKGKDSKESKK
The experiment in a line: Automated whole-cell voltage-clamp (ScreenPatch 384P) sodium current block, Nav 1.7. Format: cell-based. The settings on record: CHO cells stably expressing human Nav 1.7; inactivation step -40 mV 8 s, test step 0 mV (TP1A); eight concentrations; exposure at least five minutes; room temperature; read-out: Nav1.7 IC50. An outline of the steps: as §1

T1 sequence (Q9Y5Y9 whole entry): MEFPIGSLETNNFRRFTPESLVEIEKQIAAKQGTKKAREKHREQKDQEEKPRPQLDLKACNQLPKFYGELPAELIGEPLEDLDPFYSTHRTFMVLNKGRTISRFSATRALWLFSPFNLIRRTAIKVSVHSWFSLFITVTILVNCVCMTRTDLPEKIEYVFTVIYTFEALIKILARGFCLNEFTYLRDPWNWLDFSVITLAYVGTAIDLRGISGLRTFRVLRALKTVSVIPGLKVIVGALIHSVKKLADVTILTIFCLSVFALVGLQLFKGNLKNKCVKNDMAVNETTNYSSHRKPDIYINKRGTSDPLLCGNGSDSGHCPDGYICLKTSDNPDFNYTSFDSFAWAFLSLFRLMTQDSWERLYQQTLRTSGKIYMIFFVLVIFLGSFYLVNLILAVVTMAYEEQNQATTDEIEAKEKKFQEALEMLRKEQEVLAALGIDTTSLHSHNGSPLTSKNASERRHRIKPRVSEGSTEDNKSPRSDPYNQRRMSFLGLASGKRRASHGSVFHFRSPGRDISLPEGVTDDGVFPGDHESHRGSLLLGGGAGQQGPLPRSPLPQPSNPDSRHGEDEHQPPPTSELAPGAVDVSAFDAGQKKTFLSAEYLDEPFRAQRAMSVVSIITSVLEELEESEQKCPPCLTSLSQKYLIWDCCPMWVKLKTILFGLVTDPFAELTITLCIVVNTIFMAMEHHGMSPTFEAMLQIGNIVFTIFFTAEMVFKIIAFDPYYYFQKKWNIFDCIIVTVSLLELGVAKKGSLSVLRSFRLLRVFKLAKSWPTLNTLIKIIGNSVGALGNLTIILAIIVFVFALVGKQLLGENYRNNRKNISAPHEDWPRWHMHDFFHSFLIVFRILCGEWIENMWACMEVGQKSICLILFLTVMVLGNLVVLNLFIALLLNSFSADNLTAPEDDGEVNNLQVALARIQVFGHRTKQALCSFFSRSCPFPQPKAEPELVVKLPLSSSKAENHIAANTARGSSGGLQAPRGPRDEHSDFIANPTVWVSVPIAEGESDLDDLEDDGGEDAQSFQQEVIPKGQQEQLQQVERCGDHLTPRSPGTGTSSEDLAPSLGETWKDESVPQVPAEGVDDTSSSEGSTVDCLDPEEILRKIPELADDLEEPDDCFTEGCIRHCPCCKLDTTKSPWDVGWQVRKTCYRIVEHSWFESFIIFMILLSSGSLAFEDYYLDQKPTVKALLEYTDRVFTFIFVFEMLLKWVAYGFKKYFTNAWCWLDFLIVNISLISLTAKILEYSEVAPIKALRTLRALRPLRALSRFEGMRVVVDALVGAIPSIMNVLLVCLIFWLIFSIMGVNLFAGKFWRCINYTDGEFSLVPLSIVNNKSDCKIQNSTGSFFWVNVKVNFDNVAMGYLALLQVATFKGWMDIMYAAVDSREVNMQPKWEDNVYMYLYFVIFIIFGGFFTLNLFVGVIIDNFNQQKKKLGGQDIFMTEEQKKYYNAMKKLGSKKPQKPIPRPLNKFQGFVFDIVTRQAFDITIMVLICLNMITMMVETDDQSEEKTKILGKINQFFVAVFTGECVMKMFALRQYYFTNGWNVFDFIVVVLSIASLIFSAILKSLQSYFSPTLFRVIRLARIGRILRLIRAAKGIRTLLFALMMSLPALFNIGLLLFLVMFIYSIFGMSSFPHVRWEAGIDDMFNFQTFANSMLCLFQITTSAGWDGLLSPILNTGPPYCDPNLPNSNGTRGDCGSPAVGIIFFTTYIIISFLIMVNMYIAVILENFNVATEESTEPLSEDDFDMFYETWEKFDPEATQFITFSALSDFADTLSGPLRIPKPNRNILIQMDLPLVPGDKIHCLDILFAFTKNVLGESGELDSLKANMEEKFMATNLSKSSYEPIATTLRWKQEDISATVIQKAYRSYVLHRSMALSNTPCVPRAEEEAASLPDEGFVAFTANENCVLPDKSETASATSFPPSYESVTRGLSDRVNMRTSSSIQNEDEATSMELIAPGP

For `COc1cc(/C=N/NC(=O)c2cncc(-c3ccc(OC(F)F)nc3)n2)c(F)cn1` [Compound 106, (E)-6-(6-(difluoromethoxy)pyridine-3-yl)-N'-((5-fluoro-2-methoxypyridine-4-yl)methylene)pyrazine-2-carbohydrazide], the results for the IC50 in test [1] and in test [2] were 0.5 to 1 µM and greater than 1 µM, respectively.

Take `CCOc1ccc(-c2cncc(C(=O)N/N=C/c3nc(OC)ccc3F)n2)cn1` [Compound 15, (E)-6-(6-ethoxypyridine-3-yl)-N'-((3-fluoro-6-methoxypyridine-2-yl)methylene)pyrazine-2-carbohydrazide]: the concentration for half-maximal inhibition (IC50) (usually the point on the concentration scale where inhibition reaches its midpoint) in test [1] is less than 0.5 µM; in test [2], greater than 1 µM.

Consider `COc1cnc(F)c(/C=N/NC(=O)c2cccc(-c3ccc(OC(F)F)nc3)n2)c1` [Compound 125, (E)-6'-(difluoromethoxy)-N'-((2-fluoro-5-methoxypyridine-3-yl)methylene)-[2,3'-bipyridine]-6-carbohydrazide], for which the IC50 in test [1] and in test [2] was less than 0.5 µM each time.

For `CCOc1ccc(-c2cncc(C(=O)N/N=C/c3cc(OC)cnc3F)n2)c(C)n1` [Compound 152, (E)-6-(6-ethoxy-2-methylpyridine-3-yl)-N'-((2-fluoro-5-methoxypyridine-3-yl)methylene)pyrazine-2-carbohydrazide], the IC50 in test [1] is less than 0.5 µM; in test [2], greater than 1 µM.

For `CCOc1ccc(-c2cncc(C(=O)N/N=C/c3[nH]ccc3C#N)n2)cn1` [Compound 59, (E)-N'-((3-cyano-1H-pyrrole-2-yl)methylene)-6-(6-ethoxypyridine-3-yl)pyrazine-2-carbohydrazide], the IC50 in test [1] and in test [2] was greater than 1 µM each time.

For the compound `O=C(N/N=C/c1ccccn1)c1cncc(-c2ccc(OC(F)(F)F)nc2)n1` [Compound 84, (E)-N'-(pyridine-2-ylmethylene)-6-(6-(trifluoromethoxy)pyridine-3-yl)pyrazine-2-carbohydrazide], the half-maximal inhibitory concentration (IC50) in test [1] and in test [2] was greater than 1 µM throughout.

Regarding `CCOc1ccc(-c2cncc(C(=O)N/N=C/c3[nH]ccc3C)n2)cn1` [Compound 56, (E)-6-(6-ethoxypyridine-3-yl)-N'-((3-methyl-1H-pyrrole-2-yl)methylene)pyrazine-2-carbohydrazide], the IC50 in test [1] was 0.5 to 1 µM; in test [2] it was greater than 1 µM.

Take `COc1cc(O)c(F)c(/C=N/NC(=O)c2cncc(-c3ccc(OC(F)F)nc3)n2)c1` [Compound 119, (E)-6-(6-(difluoromethoxy)pyridine-3-yl)-N'-(2-fluoro-3-hydroxy-5-methoxybenzylidene)pyrazine-2-carbohydrazide]: the values for the IC50 in test [1] and in test [2] were 0.5 to 1 µM and greater than 1 µM, respectively.

On to `O=C(N/N=C/c1cccnc1)c1cncc(-c2ccc(OC(F)(F)F)nc2)n1` [Compound 86, (E)-N'-(pyridine-3-ylmethylene)-6-(6-(trifluoromethoxy)pyridine-3-yl)pyrazine-2-carbohydrazide], for which the IC50 in test [1] and in test [2] was greater than 1 µM in each case.

On to `CCOc1ccc(-c2cncc(C(=O)N/N=C/c3cncc(OC)c3)n2)cn1` [Compound 18, (E)-6-(6-ethoxypyridine-3-yl)-N'-((5-methoxypyridine-3-yl)methylene)pyrazine-2-carbohydrazide], for which the concentration for half-maximal inhibition (IC50) is less than 0.5 µM in test [1] and greater than 1 µM in test [2].

With `CCOc1ccc(-c2cncc(C(=O)N/N=C/c3cc(OC4CCC4)ccc3F)n2)cn1` [Compound 21, (E)-N'-(5-cyclobutoxy-2-fluorobenzylidene)-6-(6-ethoxypyridine-3-yl)pyrazine-2-carbohydrazide], the IC50 was less than 0.5 µM in test [1] and 0.5 to 1 µM in test [2].

Consider `O=C(N/N=C/c1cc(OC2CC2)ccc1F)c1cncc(-c2ccc(OC3CC3)nc2)n1` [Compound 82, (E)-N'-(5-cyclopropoxy-2-fluorobenzylidene)-6-(6-cyclopropoxypyridine-3-yl)pyrazine-2-carbohydrazide], for which the IC50 in test [1] and in test [2] was less than 0.5 µM in each case.
